Results as given in paper PMC8777717, “Thiolation of Myco-Synthesized Fe3O4-NPs: A Novel Promising Tool for Penicillium expansium Laccase Immobilization to Decolorize Textile Dyes and as an Application for Anticancer Agent” (Journal of Fungi, 2022).

Experiments:
[1] = tested on: T1, P. expansium laccase; test: spectrophotometric oxidation assay at […] nm, Lineweaver-Burk; format: biochemical, Penicillium expansum; settings: free enzyme; 0.2-0.8 mM substrate; 0.1 M sodium acetate pH 5.0, 40 °C
T1 construct: gene EC 1.10.3.2; native enzyme purified from culture filtrate (ABTS-supplemented medium; ammonium sulfate, DEAE-cellulose, Sephadex G-200); single SDS-PAGE band ~60 kDa; free (soluble) enzyme

[2] = tested on: T1, P. expansium laccase; test: Lineweaver-Burk; format: biochemical, Penicillium expansum; settings: free enzyme; 0.2-0.8 mM substrate; 0.1 M sodium acetate pH 5.0, 40 °C
Source text: Lineweaver-Burk on P. expansium laccase

For CCn1c(=NN=c2sc3cc(S(=O)(=O)O)ccc3n2CC)sc2cc(S(=O)(=O)O)ccc21 [ABTS], the Km [1] was 4150 µM.
Oc1ccccc1O [catechol] gave a Km [2] of 1310 µM.
